Legend:
[1] = test system: blood leukocytes; assay: Capture of leukocytes from urine with biotinylated cell binding peptide on streptavidin magnetic beads (same test, obscuring cells); type: cell-based; details: cells captured on peptide-magnetic bead conjugate from 5 ml human urine; leukocyte:J82 mixture 12.5:1 to 20:1; unit not given
Method: (§1) A green fluorescent leukocyte preparation was prepared as follows. Red blood cells in 2 ml anti-coagulated human blood were lysed by the addition of 30 ml of a hypotonic medium and incubation for 10 min at room temperature. Intact cells and debris were recovered by centrifugation at 300×g. Pelleted material was resuspended with PBS/0.5% BSA/2 mM EDTA and filtered through a 100 micron nylon filter. Leukocytes (3×10^6) were labeled with 5 μM Cell Tracker Green CMFDA (LIFE TECHNOLOGIES/MOLECULAR PROBES) in EMEM growth medium without serum for 45 min. Excess dye was removed by centrifugation at 500×g for 5 min and washing with PBS/0.5% BSA/2 mM EDTA and cells were exposed to 10% serum containing medium for 45 min to allow dye conversion.
Red fluorescent J82 cells were prepared as follows: An 80% confluent culture of J82 bladder cancer cells was labeled with 5 μM Cell Tracker Red CMPTX (LIFE SCIENCES/MOLECULAR PROBES) in EMEM growth medium without serum for 90 min. Excess dye was removed by washing the flask with EMEM/10% FBS and cells were exposed to 10% serum containing medium for 1.5 h for dye conversion. The cells were then washed with PBS and released from the flask with 0.05% trypsin. Cells were recovered and trypsin removed by centrifugation at 500×g followed by washing in PBS/0.5% BSA/2 mM EDTA. […]

[2] = test system: J82 bladder cancer cells; assay: Capture of cultured J82 tumor cells from urine with biotinylated cell binding peptide on streptavidin magnetic beads; type: cell-based, human; details: for J82 bladder tumor cells: cells captured on peptide-magnetic bead conjugate from 5 ml human urine, leukocyte:J82 mixture 12.5:1 to 20:1, unit not given; for Enrichment Factor: ratio J82:total leukocytes after capture divided by ratio before capture, urine
Method: as §1
Red fluorescent J82 cells were prepared as follows: An 80% confluent culture of J82 bladder cancer cells was labeled with 5 μM Cell Tracker Red CMPTX (LIFE SCIENCES/MOLECULAR PROBES) in EMEM growth medium without serum for 90 min. Excess dye was removed by washing the flask with EMEM/10% FBS and cells were exposed to 10% serum containing medium for 1.5 h for dye conversion. The cells were then washed with PBS and released from the flask with 0.05% trypsin. Cells were recovered and trypsin removed by centrifugation at 500×g followed by washing in PBS/0.5% BSA/2 mM EDTA.
Biotinylated peptides SEQ ID NO: 1 and SEQ ID NO: 10 were synthesized with a C-terminal Peg10 group attached to a lysine as described in Example 1. The biotinylated peptides were conjugated to magnetic microbeads (MILTENYI) by incubating 400 μl of bead suspension in 20 μM peptide for 30 min on ice with occasional mixing. Unbound peptide was removed by binding the beads to a Miltenyi MS column placed in a magnetic field. Beads were washed with PBS/0.5% BSA/2 mM EDTA and peptide conjugated beads released by removing the Miltenyi MS column from the magnetic field. A mixture of green fluorescent leukocytes and red fluorescent J82 bladder cancer cells was variously prepared in ratios between 12.5:1 and 20:1. The cell mixture (725,000 cells total) was added to 5 ml human urine and then 250 μl of peptide-magnetic bead conjugate. The whole was incubated for 45 min at room temperature with rotation.
To capture cells the peptide-magnetic bead cell mixture was passed over a Miltenyi MS column pre-equilibrated with PBS/0.5% BSA/2 mM EDTA and held in a magnetic field. Unbound cells were washed out with PBS/0.5% BSA/2 mM EDTA and retained. Cells bound to the peptide-magnetic bead conjugate were released from the Miltenyi MS column by removing the column from the magnetic field. […] The data in FIG. 3 and Table 2 below show a 463-fold to 588-fold enrichment of J82 cells from leukocytes in urine. […]

[3] = test system: J82 urothelial cancer cells; assay: Selective capture of J82 urothelial cells from a mixture of J82 and white blood cells on peptide coated glass slide; type: cell-based, human
Method: (§2) Peptides were synthesized in a conjugatable format for unidirectional conjugation to glass. Peptides were attached to glass through a covalent bond formed between the lysine on C-terminus of the peptide and an N-Hydroxysuccinimide (NHS) group on the glass. Briefly, microscope glass slides functionalized with NHS groups ((MICROSURFACES, Inc)) were incubated with peptide solution at 200 μM for 2 hours at 30° C., ˜75% RH. At the end of the incubation the slides were washed 3 times for 5 min in washing buffer (1×PBS, 0.05% Tween 20) and subsequently deactivated in deactivation solution (MICROSURFACES, Inc) for 30 min at 30° C., ˜75% RH to deactivate any remaining uncoupled NHS groups. Eventually slides were washed twice for 5 min in washing buffer prior to being blocked for 1 hour in blocking buffer (PBS, 0.5% BSA, 2 mM EDTA).
(§3) Microscope glass slides with discrete areas functionalized with peptide were used as diagnostic cell capture devices as shown in FIG. 1. Cells used were cultured cell lines established from human transitional bladder carcinomas (J82, ATCC HTB-1 and T24, ATCC HTB-4), cells isolated from voided urine of healthy donors (primary cells), a cultured cell line established from human thyroid carcinoma (SW579) or white blood cells (WBC) obtained from human whole blood by lysing red blood cells.
(§4) Cell suspension was prepared in cell capture buffer (PBS, 0.5% BSA, 2 mM EDTA, 0-200 mM glucose) and applied directly to a peptide functionalized slide in which peptide was attached to a glass slide using the N-Hydroxysuccinimide chemistry described in Example 4 with a pipetting device. The cells were incubated on the slide for 15 min and then drained by tipping the slide to the side. The slides were washed by dipping in wash buffer (PBS, 0.5% BSA, 2 mM EDTA) to wash away unbound cells. Slides were fixed in paraformaldehyde, dried, stained (H&E) and cover slipped for microscopic examination in a bright field. For fluorescent microscopy the cells were labeled with fluorescent dyes (CELLTRACKER Green or Red; LIFE TECHNOLOGIES, INC) prior to applying to the slide. Following the 15 min incubation the slides were washed, fixed, dried and mounted with a fluorescent mounting medium for microscopic examination in a dark field.
(§5) Selective capture of urothelial cells, J82, was achieved from a mixture of J82 and white blood cells (WBC) on a peptide coated glass slide using cell binding peptides of the present disclosure. In this Example, peptides were synthesized with a C-terminal Peg10 spacer followed by a lysine and conjugated to the glass slide according to Example 4.
The cell binding peptides used in a first experiment were SEQ ID NO: 1, SEQ ID NO: 2, SEQ ID NO: 3, and SEQ ID NO: 4. […] Human WBC and J82 cells were labeled with different CELLTRACKER dyes, mixed at a 1 to 1 ratio and applied to a slide with discrete areas coated with peptides. The slide was washed of unbound cells and captured cells were counted under a fluorescent microscope. Data are presented in FIGS. 5A & 5B as cell number per microscope field at 100× magnification averaged from 10 fields. The slide area not coated with peptide was used as a negative control. Preferential capture of J82 urothelial cells was observed leading to depletion of WBC up to 85%. […] Thus the degree of WBC removal from the diagnostic sample can be controlled by using a peptide most suitable for the application. For example, in some circumstances the presence of some WBCs on the slide may provide valuable clinical information.
In another experiment, selective capture of urothelial cancer cells, J82, was achieved from a mixture of J82 and WBC on a peptide coated glass slide using peptides SEQ ID NO: 5, SEQ ID NO: 6, and SEQ ID NO: 7. […] Human WBC and J82 cells were labeled with different CELLTRACKER dyes, mixed at 7 to 1 ratio and applied to a slide with discrete areas coated with peptides. The slide was washed of unbound cells and captured cells were counted under a fluorescent microscope. […]

[4] = test system: J82 urothelial cancer cells; assay: Selective capture of J82 urothelial cancer cells from voided urine spiked with whole blood on peptide coated slide; type: cell-based, human; details: voided urine spiked with whole blood and J82 cells; H&E staining, 100x
Method: as §3
as §4, with “The” for “Cell suspension was prepared in cell capture buffer (PBS, 0.5% BSA, 2 mM EDTA, 0-200 mM glucose) and applied directly to a peptide functionalized slide in which peptide was attached to a glass slide using the N-Hydroxysuccinimide chemistry described in Example 4 with a pipetting device. The”
In this Example, peptides were synthesized with a C-terminal Peg10 spacer followed by a lysine and conjugated to the glass slide according to Example 4.
In another experiment urothelial cancer cells from voided urine were selectively captured using peptide SEQ ID NO: 5. […]

[5] = test system: primary cells from voided urine; assay: Capture of primary cells from voided urine on peptide coated glass slide; type: cell-based, human; details: for Number of captured basal and intermediate cells/peptide coated area / Number of captured superficial and squamous cells/peptide coated area: cells from 40 mL voided urine, entire peptide coated area 2.67 cm^2, H&E, bright field; for peptide selectivity: preferential capture of cell type: primary cells from voided urine
Method: as §2, §3, §4, §5
In another experiment, primary cells from voided urine were selectively captured onto peptide coated glass slides. Specifically, cells were isolated from 40 mL of voided urine from a second morning void and applied to a glass slide with a discrete area coated with peptide. Cells were visualized by H&E staining and counted in a bright field. Results are presented in Table 3 below as a cell number per the entire peptide coated area (2.67 cm^2). […] The sample adequacy criterion for urine cytology is at least 15 well visualized basal or intermediate cells^1.

[6] = test system: SW579 thyroid cancer cells; assay: Selective capture of SW579 thyroid cells from a mixture of SW579 and WBC on peptide coated glass slide; type: cell-based, human; details: WBC:SW579 1 to 1; compared with SEQ ID NO: 4 and SEQ ID NO: 1
Method: as §2
Microscope glass slides with discrete areas functionalized with peptide were used as diagnostic cell capture devices as shown in FIG. 1. […]
In a first experiment peptides SEQ ID NO: 1, SEQ ID NO: 2, SEQ ID NO: 3 and SEQ ID NO: 4 were tested and peptide SEQ ID NO: 10 was used as a positive control. […] The slide was washed of unbound cells and captured cells were counted under a fluorescent microscope. […]

[7] = test system: thyroid cancer cells; assay: Selective capture of thyroid cancer cells spiked with whole blood on peptide coated slide; type: cell-based, human; details: H&E staining, 200x
Method: as §3
as §4, with “Following the 15 min incubation the slides were washed, fixed, dried and mounted with a fluorescent mounting medium for microscopic examination in a dark field.” left out

[8] = WBC:J82 7 to 1, compared with SEQ ID NO: 7
[9] = J82 (100, 500 or 1000 cells) and WBC mixed 1:72, 15 min incubation
[10] = WBC:J82 1 to 1, compared with SEQ ID NO: 1 and SEQ ID NO: 4

Sequence: SFCPSNHDCIDWFIRSR [SEQ ID NO: 10, used as positive control in the thyroid test]
- Total Blood Leukocytes [1]: 0.09
- J82 bladder tumor cells [2]: 53.6
- Enrichment Factor [2]: 588

Sequence: SSVALSFQAVPYDFHSSR [SEQ ID NO: 5]
- capture selectivity (WBC to J82 end ratio) [3, 8]: more selective
- selective capture of urothelial cancer cells, slide washed [4]: Blood cells are washed away and urothelial cells retained
- Number of captured basal and intermediate cells/peptide coated area [5]: 40 cells/peptide coated area
- Number of captured superficial and squamous cells/peptide coated area [5]: 19 cells/peptide coated area
- peptide selectivity: preferential capture of cell type [5]: deep urothelial cells

Sequence: SSFSNYDSPWGPNWSVISR [SEQ ID NO: 1]
- Total Blood Leukocytes [1]: 0.1
- J82 bladder tumor cells [2]: 48.2
- Enrichment Factor [2]: 463

Sequence: SSFGSDCSPWGCEWVPVSR [SEQ ID NO: 4]
- Number of captured basal and intermediate cells/peptide coated area [5]: 21 cells/peptide coated area
- Number of captured superficial and squamous cells/peptide coated area [5]: 6 cells/peptide coated area
- peptide selectivity: preferential capture of cell type [5]: deep urothelial cells

Sequence: SSIEDLPKDWPLFGWMSSR [SEQ ID NO: 2]
- depletion of WBCs from the input material [3, 9]: 86%
- reduction in WBCs relative to urothelial cells [3, 9]: 7.6 fold
- capture selectivity (WBC to J82 end ratio) [3, 10]: more selective
- capture selectivity (WBC to SW579 end ratio) [6]: more selective

Sequence: SSVQHAYQAWPGLGAYTSR [SEQ ID NO: 6]
- capture selectivity (WBC to J82 end ratio) [3, 8]: more selective
- Number of captured basal and intermediate cells/peptide coated area [5]: 5 cells/peptide coated area
- Number of captured superficial and squamous cells/peptide coated area [5]: 35 cells/peptide coated area
- peptide selectivity: preferential capture of cell type [5]: superficial and squamous cells

Sequence: SSLESVKEPWGPGWIPVSR [SEQ ID NO: 3]
- capture selectivity (WBC to J82 end ratio) [3, 10]: more selective
- selective capture of thyroid cancer cells, slide washed [7]: Blood cells are washed away and thyroid cells retained
- capture selectivity (WBC to SW579 end ratio) [6]: more selective

From US9279810B2, “Cell binding peptides for diagnosis and detection” (Affinergy, LLC, priority 2013, dated 2016)
